# Results from patent publication US4374248A, “3,4-Disubstituted-1,2,5-thiadiazole-1-oxide compounds” (Bristol-Myers Company, priority 1981, dated 1983).
# Read-outs that look alike come from different tables or passages of the source.
# Experiments:
# Gastric Acid Output = test: Gastric Antisecretory Activity in the Two Hour Pylorus Ligated (Shay) Rat; format: in vivo, rat (Male Long Evans); conditions: 2 h
# Excerpt: Med. Res., 3, 86 (1975). […] One of the standard animal models for determining gastric antisecretory activity of histamine H2 -antagonists is the pylorus ligated rat.
# Determination of Gastric Antisecretory Activity in the Two Hour Pylorus Ligated (Shay) Rat
# The pyloric ligation procedure in the rat was designed by Shay et al., Gastroenterology, 5, 53 (1945) for the study of perforating gastric ulcers; however, as the method became known, it was also employed as a means of studying rat gastric secretion, Shay et al., Gastroenterology, 26, 906 (1954), Brodie, D, A. Am. J. Dig. Dis., 11, 231 (1966). A modification of this procedure is presently used to evaluate compounds for gastric antisecretory activity.
# Male Long Evans rats, 280-300 gm., are used. The animals are placed in individual cages and fasted for 24 hours with free access to water. Under ether anesthesia, the stomach is reached through a midline incision, and a cotton-thread ligature is placed around the pylorus. After wound closure, ether administration is stopped and the test compound or control vehicle is administered either intraperitoneally or subcutaneously in a volume of 1 ml./kg. All compounds are solubilized with one equivalent of HCl and brought to the proper volume with water. The animals are returned to their cages from which the water bottles have been removed and two hours later are sacrificed with ether. The stomach is removed and the two hour gastric collection is drained into a graduated test tube for volume determination. Titratable acidity is measured by titrating a one ml. sample to pH 7.0 with 0.02 NaOH, using an Autoburet and electrometric pH meter (Radiometer). Titratable acid output is calculated in microequivalents by multiplying the volume in milliliters by the acid concentration in milliequivalents per liter. The percent inhibition of acid output is calculated as follows [formula] At least five rats are used at each dosage level, and a minimum of three dosage levels are utilized for determination of a dose response curve. Initially this test was conducted utilizing intraperitoneal injection of the test compound or control vehicle. […] The route of administration of each compound is noted in Table 1.
# gastric secretion = conditions: cited from earlier work
# [1] = in vivo; cited from earlier work
# H2 -receptor = conditions: cited from earlier work
# [2] = clinical; cited from earlier work
# peptic ulcer disease = conditions: Gray et al., Lancet, 1, 8001 (1977); cited from earlier work
# [3] = sc, s.c. administration, two hour gastric acid output, 95% confidence limits in parenthesis, read-out: ED50
smiles,measurement,setting,value
CNC1=NS(=O)(=O)N=C1NCCSCc1ccc(CN(C)C)o1 [11 B],ED50,"Gastric Acid Output; ip, i.p. administration, two hour gastric acid output, 95% confidence limits in parenthesis, read-out: ED50",0.69 µmol/kg
CN(C)Cc1ccc(CSCCNC2=NS(=O)(=O)N=C2NCCSCc2ccc(CN(C)C)o2)o1 [11 C],ED50,Gastric Acid Output; [3],0.2 µmol/kg
CNCc1ccc(CSCCNC2=NS(=O)(=O)N=C2NC)o1 [20 A],ED50,Gastric Acid Output; [3],1.15 µmol/kg
CNC1=NS(=O)(=O)N=C1NCCCOc1cccc(CN2CCCC2)c1 [144 a],ED50,Gastric Acid Output; [3],0.095 µmol/kg
CNC1=NS(=O)(=O)N=C1NCCCOc1cccc(CN2CCC(C)CC2)c1 [144 b],ED50,Gastric Acid Output; [3],0.025 µmol/kg
CNC1=NS(=O)(=O)N=C1NCCCOc1cccc(CN2CCCCCC2)c1 [144 c],ED50,Gastric Acid Output; [3],0.14 µmol/kg
CNC1=NS(=O)(=O)N=C1NCCCOc1cccc(CN2CCOCC2)c1 [144 d],ED50,Gastric Acid Output; [3],0.91 µmol/kg
Nc1n[s+]([O-])nc1NCCCOc1cccc(CN2CCCC2)c1 (stereo not shown) [145 a],ED50,Gastric Acid Output; [3],0.056 µmol/kg
CC1CCN(Cc2cccc(OCCCNc3n[s+]([O-])nc3N)c2)CC1 (stereo not shown) [145 b],ED50,Gastric Acid Output; [3],~0.06 µmol/kg
Nc1n[s+]([O-])nc1NCCCOc1cccc(CN2CCCCCC2)c1 (stereo not shown) [145 c],ED50,Gastric Acid Output; [3],0.025 µmol/kg
Nc1n[s+]([O-])nc1NCCCOc1cccc(CN2CCCCCCC2)c1 (stereo not shown) [145 d],ED50,Gastric Acid Output; [3],0.05 µmol/kg
NC1=NS(=O)(=O)N=C1NCCCOc1cccc(CN2CCCC2)c1 [146 a],ED50,Gastric Acid Output; [3],0.023 µmol/kg
NC1=NS(=O)(=O)N=C1NCCCOc1cccc(CN2CCOCC2)c1 [146 d],ED50,Gastric Acid Output; [3],0.28 µmol/kg
CNC(=S)NCCCCc1cnc[nH]1 [Burimamide],inhibition of gastric secretion,gastric secretion; animals and man,inhibits gastric secretion in animals and man
same,oral absorption,[1],poor
CNC(=NC#N)NCCSCc1nc[nH]c1C [Cimetidine],ED50,Gastric Acid Output,~9 µmol/kg
same,H2 -antagonist potency/effectiveness relative to another antagonist,H2 -receptor,as effective an H2 -antagonist as metiamide
same,toxicity (agranulocytosis),[2],without producing agranulocytosis
same,therapeutic effect in peptic ulcer disease,peptic ulcer disease,effective therapeutic agent in the treatment of peptic ulcer disease
"CN(C)Cc1ccc(CSCCNC2=NS(=O)(=O)N=C2N(C)C)o1 [Example 28, 3-{2-[(5-Dimethylaminomethyl-2-furyl)methylthio]ethylamino}-4-dimethylamino-1,2,5-thiadiazole 1,1-dioxide]",ED50,Gastric Acid Output; [3],1.39 µmol/kg
"CN(C)Cc1ccc(CSCCNC2=NS(=O)(=O)N=C2N2CCCCC2)o1 [Example 102, 3-{2-[(5-Dimethylaminomethyl-2-furyl)methylthio]ethylamino}-4-piperidino-1,2,5-thiadiazole 1,1-dioxide]",ED50,Gastric Acid Output; [3],~15 µmol/kg
"CCCCCCCCCCCCNC1=NS(=O)(=O)N=C1NCCSCc1ccc(CN(C)C)o1 [Example 106, 3-{2-[(5-Dimethylaminomethyl-2-furyl)methylthio]ethylamino}-4-dodecylamino-1,2,5-thiadiazole 1,1-dioxide]",ED50,Gastric Acid Output; [3],~80 µmol/kg
CNC(=S)NCCSCc1nc[nH]c1C [Metiamide],oral activity,"gastric secretion; in man, oral",orally active in man
same,H2 -antagonist potency/effectiveness relative to another antagonist,H2 -receptor,more potent than burimamide
same,toxicity (agranulocytosis),[2],toxicity (agranulocytosis)
